Measured values published in patent publication US20050153870A1, “Medicinal composition for diagnosis, prevention, or therapy of multiple risk factor syndrome” (priority 2002, published 2005).

Test system: non-insulin dependent type II diabetes patients
Experiment: Clinical test II
Assay type: in vivo, human
Settings: for Fasting blood sugar, change vs before medication / Fasting blood sugar: Normal blood sugar group FBS < 130 mg/dl; for Fasting blood sugar: before medication 108.8 ± 15.10; for number of patients with fasting blood sugar level No change or increase / number of patients with reduction rate of fasting blood sugar level 20-10% / number of patients with reduction rate of fasting blood sugar level <10% / number of patients with reduction rate of fasting blood sugar level >20% / number of patients with total serum cholesterol No change or increase / number of patients with total serum cholesterol decreasing rate 20-10% / number of patients with total serum cholesterol decreasing rate <10% / number of patients with total serum cholesterol decreasing rate >20%: 12 weeks
Protocol: On the other hand, Clinical test II was performed in a group of 79 participants from non-insulin dependent diabetic patients.
79 non-insulin dependent type II diabetes patients whose blood sugar is well-controlled under dietary therapy (all were mongoloid Japanese) participated in Clinical test II. They were forbidden to use sulfonyl urea and biguanide agent which is a therapeutic agent for type II diabetes, and a fibrate series medicament, nicotinic acid, and probucol which is a serum fat decreasing agent; however use of an antihypertensive agent is not particularly prohibited. They participated on a voluntary basis after they signed informed consent for clinical test participation, which was proposed by a medical institution based on the Helsinki declaration. The participants consisted of 26 males and 53 females. An average age at the sign-up time was 58±9.9 years old (average value±standard deviation), ranging from 37 to 81 years old. The body weight of patients was divided by standard body weight obtained from the standard body-weight table issued by Meiji life Insurance Company. This index was 1.24±0.154 (average value±standard deviation) at the sign-up time, meaning that there are many obese persons. After 12 weeks, the body weight index decreased to 1.18±0.137(average value±standard deviation).
The number of patients having normal blood pressure was 58 (of them, 31 patients were taking an antihypertensive agent).

[1] = body weight fluctuation: No change or increase (total 29)
[2] = body weight fluctuation: No change or increase (total 31)
[3] = body weight fluctuation: Reduction of 3 kg or less (total 24)
[4] = body weight fluctuation: Reduction of 3 kg or less (total 25)
[5] = body weight fluctuation: Reduction of 3 kg or more (total 13)
[6] = body weight fluctuation: Reduction of 3 kg or more (total 18)

## COc1c(Cl)c(C)c(C=O)c(O)c1C/C=C(C)/C=C/[C@@]1(C)[C@H](C)CCC(=O)[C@@H]1C [4-O-methylascochlorin]
8th week
  Fasting blood sugar, change vs before medication: ns (n = 25)
  Fasting blood sugar: 109.0 ± 17.34 mg/dL
12th week
  Fasting blood sugar, change vs before medication: ns (n = 25)
  Fasting blood sugar: 106.4 ± 17.80 mg/dL
Normal group <220 mg/dl, 4th week, before medication 188.9 ± 21.55
  Total serum cholesterol: 177.9 ± 31.91 mg/dL
Normal group <220 mg/dl, 4th week, ns. = No significant difference
  Total serum cholesterol, change vs before medication: ns. (n = 14)
Normal group <220 mg/dl, 8th week, before medication 188.9 ± 21.55
  Total serum cholesterol: 176.0 ± 36.33 mg/dL
Normal group <220 mg/dl, 8th week, ns. = No significant difference
  Total serum cholesterol, change vs before medication: ns. (n = 14)
Normal group <220 mg/dl, 12th week, before medication 188.9 ± 21.55
  Total serum cholesterol: 181.2 ± 32.10 mg/dL
Normal group <220 mg/dl, 12th week, ns. = No significant difference
  Total serum cholesterol, change vs before medication: ns. (n = 18)
Super high cholesterol group >300 mg/dl, 4th week
  Total serum cholesterol, change vs before medication: −20.0% (n = 20)
Super high cholesterol group >300 mg/dl, 4th week, before medication 348.8 ± 56.36
  Total serum cholesterol: 273.8 ± 29.38 mg/dL
Super high cholesterol group >300 mg/dl, 8th week
  Total serum cholesterol, change vs before medication: −28.9% (n = 20)
Super high cholesterol group >300 mg/dl, 8th week, before medication 348.8 ± 56.36
  Total serum cholesterol: 248.5 ± 36.01 mg/dL
Super high cholesterol group >300 mg/dl, 12th week
  Total serum cholesterol, change vs before medication: −30.0% (n = 21)
Super high cholesterol group >300 mg/dl, 12th week, before medication 348.8 ± 56.36
  Total serum cholesterol: 244.2 ± 36.59 mg/dL
Abnormal high value group, greater than 120 mg/dl
  Serum neutral fat: significantly decreased
After 12 weeks, at the sign-up time 1.24±0.154
  body weight index (body weight divided by standard body weight): 1.18±0.137
[1]
  number of patients with fasting blood sugar level No change or increase: 11
  number of patients with reduction rate of fasting blood sugar level 20-10%: 8
  number of patients with reduction rate of fasting blood sugar level <10%: 7
  number of patients with reduction rate of fasting blood sugar level >20%: 3
[2]
  number of patients with total serum cholesterol No change or increase: 11
  number of patients with total serum cholesterol decreasing rate 20-10%: 6
  number of patients with total serum cholesterol decreasing rate <10%: 5
  number of patients with total serum cholesterol decreasing rate >20%: 9
[3]
  number of patients with fasting blood sugar level No change or increase: 4
  number of patients with reduction rate of fasting blood sugar level 20-10%: 8
  number of patients with reduction rate of fasting blood sugar level <10%: 6
  number of patients with reduction rate of fasting blood sugar level >20%: 6
[4]
  number of patients with total serum cholesterol No change or increase: 4
  number of patients with total serum cholesterol decreasing rate 20-10%: 2
  number of patients with total serum cholesterol decreasing rate <10%: 1
  number of patients with total serum cholesterol decreasing rate >20%: 18
[5]
  number of patients with total serum cholesterol No change or increase: 1
  number of patients with total serum cholesterol decreasing rate 20-10%: 0
  number of patients with total serum cholesterol decreasing rate <10%: 1
  number of patients with total serum cholesterol decreasing rate >20%: 11
[6]
  number of patients with fasting blood sugar level No change or increase: 3
  number of patients with reduction rate of fasting blood sugar level 20-10%: 3
  number of patients with reduction rate of fasting blood sugar level <10%: 4
  number of patients with reduction rate of fasting blood sugar level >20%: 8
Borderline hypertensive patients (n = 14), 4th week, before medication 92 ± 3.0
  Blood pressure, Diastolic period: 86 ± 2.4 mmHg
Borderline hypertensive patients (n = 14), 4th week, before medication 156 ± 5.4
  Blood pressure, Systolic period: 149 ± 3.8 mmHg
Borderline hypertensive patients (n = 14), 8th week, before medication 92 ± 3.0
  Blood pressure, Diastolic period: 86 ± 3.3 mmHg
Borderline hypertensive patients (n = 14), 8th week, before medication 156 ± 5.4
  Blood pressure, Systolic period: 147 ± 3.3 mmHg
Borderline hypertensive patients (n = 14), 12th week, before medication 92 ± 3.0
  Blood pressure, Diastolic period: 86 ± 4.1 mmHg
Borderline hypertensive patients (n = 14), 12th week, before medication 156 ± 5.4
  Blood pressure, Systolic period: 149 ± 5.5 mmHg
Group having a fasting blood sugar level of greater than 130 mg/dl
  blood sugar decreasing effect: has a significant blood sugar decreasing effect
Group with serum neutral fat <120 mg/dl, 4th week
  Serum neutral fat, change vs before medication: −9.3% (n = 6)
Group with serum neutral fat <120 mg/dl, 4th week, before medication 96.2 ± 12.57
  Serum neutral fat: 88.5 ± 32.93 mg/dL
Group with serum neutral fat <120 mg/dl, 8th week
  Serum neutral fat, change vs before medication: −15.7% (n = 7)
Group with serum neutral fat <120 mg/dl, 8th week, before medication 96.2 ± 12.57
  Serum neutral fat: 85.7 ± 24.64 mg/dL
Group with serum neutral fat <120 mg/dl, 12th week
  Serum neutral fat, change vs before medication: −5.2% (n = 8)
Group with serum neutral fat <120 mg/dl, 12th week, before medication 96.2 ± 12.57
  Serum neutral fat: 90.3 ± 22.32 mg/dL
Group with serum neutral fat >120 mg/dl, 4th week
  Serum neutral fat, change vs before medication: −15.5% (n = 56)
Group with serum neutral fat >120 mg/dl, 4th week, before medication 215.7 ± 83.96
  Serum neutral fat: 182.6 ± 68.26 mg/dL
Group with serum neutral fat >120 mg/dl, 8th week
  Serum neutral fat, change vs before medication: −23.2% (n = 52)
Group with serum neutral fat >120 mg/dl, 8th week, before medication 215.7 ± 83.96
  Serum neutral fat: 172.7 ± 62.84 mg/dL
Group with serum neutral fat >120 mg/dl, 12th week
  Serum neutral fat, change vs before medication: −25.4% (n = 61)
Group with serum neutral fat >120 mg/dl, 12th week, before medication 215.7 ± 83.96
  Serum neutral fat: 167.8 ± 72.93 mg/dL
Hypertension group, 4 weeks after medication, text: no significant difference
  decrease of systolic pressure: 10 mmHg
Hypertensive patients (n = 7), 4th week, before medication 97 ± 3.0
  Blood pressure, Diastolic period: 91 ± 3.0 mmHg
Hypertensive patients (n = 7), 4th week, before medication 175 ± 10.4
  Blood pressure, Systolic period: 165 ± 15.6 mmHg
Hypertensive patients (n = 7), 8th week, before medication 97 ± 3.0
  Blood pressure, Diastolic period: 90 ± 5.1 mmHg
Hypertensive patients (n = 7), 8th week, before medication 175 ± 10.4
  Blood pressure, Systolic period: 161 ± 13.9 mmHg
Hypertensive patients (n = 7), 12th week, before medication 97 ± 3.0
  Blood pressure, Diastolic period: 89 ± 4.0 mmHg
Hypertensive patients (n = 7), 12th week, before medication 175 ± 10.4
  Blood pressure, Systolic period: 158 ± 15.7 mmHg
Normal blood sugar group, fasting blood sugar level of 130 mg/dl or less
  blood sugar decreasing effect: does not have a blood sugar decreasing effect
Normal group, serum total cholesterol 220 mg/dl or less
  concentration of serum cholesterol: did not change the concentration of serum cholesterol significantly
Normal value group, 120 mg/dl or less
  Serum neutral fat: only a tendency to decrease
Patients of type II diabetes complicated with borderline hypertensive
  antihypertensive effect: highly significant antihypertensive effect
Super high value group and high value group
  total cholesterol values: further significantly decreased
